According to patent US9625458B2, “Biosensor” (priority 2002, dated 2017):

Assays:
[1] = molecular target: T1, E. coli dipeptide binding protein variant D450C, fluorophore conjugate (Escherichia coli, UniProt P23847, D478C); assay: Fluorimetric titration of fluorophore conjugates; conditions: peristeric site
T1 construct: initiator methionine (N); Gly-Ser-Gly-(His)n or Gly-Ser-(His)n (n = 5, 6 or 10) (C); made in house; host or cells: E. coli BL21-DE3
Text: (§1) Molecular Cloning. […] Amplified products were cloned into one of the protein expression vectors pAED4 (Doering, “Functional and structural studies of a small f-actin binding domain” in Ph.D. thesis, Massachusetts Institute of Technology, 1992); pKK223-3 (Brosius & Holy, Proc. Natl. Acad. Sci. USA 81:6929-6933, 1984); or pET vectors (Studier et al., Meth. Enzymol. 185:60-89, 1990) (Novagen). N-terminal oligonucleotide primers were designed to clone only the processed periplasmic form, deleting the signal sequence. The C-terminal primer was designed to append the sequence Gly-Ser-Gly-(His)n or Gly-Ser-(His)n, where n=5, 6, or 10. Two tandem stop codons (TAATGA) follow the last His codon. […] Single amino acid substitutions were generated by overlapping PCR mutagenesis (Ho et al., Gene 77:51-59, 1989). All clones and mutations were confirmed by nucleotide sequencing. In the case of arabinose BP, the single cysteine in the wild type sequence was replaced by alanine to eliminate the possibility of reporter group conjugation to this thiol (Miller et al., J. Biol. Chem. 254:7521-7528, 1979). Additionally the sequence of Fe(III) BP was mutated by substitution of Glu57 with Asp to raise the Kd to a concentration range conveniently measured using Fe(III) citrate.
(§2) Fluorophore conjugation to cysteine-substituted bPBPs. Thiol-reactive fluorophores obtained from Molecular Probes (Eugene, Oreg.) were 5-iodoacetamidofluorescein (fluorescein); N-(1-pyrene) iodoacetamide (pyrene); N,N′-dimethyl-N-(iodoacetyl)-N′-(7-nitrobenz-2-oxa-1,3-diazol-4-yl)ethylenediamide (NBD); N-((2-(iodoacetoxy)ethyl)-N-methyl)amino-7-nitrobenz-2-oxa-1,3-diazole (NBDE); and 6-acryloyl-2-dimethylaminonaphthalene (acrylodan). The styryl and naphthyl dyes JPW4039, JPW4042, and JPW4045 (FIG. 3) were synthesized at the University of Connecticut. All fluorophore conjugation steps were typically carried out at room temperature. To protein at a concentration of 100 μM was added tris-(2-carboxyethyl)phosphine HCl to a five-fold molar excess to reduce intermolecular disulfide bonds. A thiol-reactive fluorophore (20 to 25 mM in acetonitrile or dimethyl sulfoxide) was added in small aliquots to a five-fold molar excess over protein. Conjugation proceeded in the dark at room temperature for 4 hours, or overnight at 4° C. Separation of protein from unreacted fluorophore was achieved by exhaustive dialysis or by size-exclusion chromatography. The efficiency of reporter group attachment was assessed by determination of unreacted thiol with Ellman's reagent (Ellman, Arch. Biochem. Biophys. 74:443-450, 1958) or by measuring the ratio of fluorophore to protein from absorbance spectra of the purified conjugate.
(§3) Fluorimetry. All measurements were conducted with an SLM Aminco-Bowman series 2 fluorimeter, with sample stirring at 25° C. Fluorescence emission spectra were acquired with excitation and emission slit widths of 4 and 8 nm, respectively. Photomultiplier tube potential was maintained between 400 and 800 volts. Protein concentrations were in the range of 50 to 1000 nM. Fluorophore-specific excitation was at the following approximate wavelengths: tryptophan, 290 nm; acrylodan, 390 nm; fluorescein, 485 nm; pyrene, 340 nm; NBD and NBDE, 490 nm; JPW4039, 485 nm; JPW4042, 470 nm; JPW4045, 470 nm.
(§4) Corrections were made for dilution of the protein and for background signal from buffer. Binding curves were fit to binding isotherms using equation 3 or 4, as appropriate.
(§5) Analyte affinity measurements. […] The emission wavelength monitored was that of maximum difference in intensity between the ligand-free and bound states. For each conjugate, fluorescence intensiometric observations were fit to a hyperbolic binding isotherm for a two-state model (Marvin et al., Proc. Natl. Acad. Sci. USA 94:4366-4371, 1997): […]

[2] = molecular target: T2, E. coli dipeptide binding protein variant S111C, fluorophore conjugate (Escherichia coli, UniProt P23847, S139C); assay: Fluorimetric titration of fluorophore conjugates; conditions: peristeric site
T2 construct: initiator methionine (N); Gly-Ser-Gly-(His)n or Gly-Ser-(His)n (n = 5, 6 or 10) (C); made in house; host or cells: E. coli BL21-DE3
T2 sequence (P23847 29-535 S139C): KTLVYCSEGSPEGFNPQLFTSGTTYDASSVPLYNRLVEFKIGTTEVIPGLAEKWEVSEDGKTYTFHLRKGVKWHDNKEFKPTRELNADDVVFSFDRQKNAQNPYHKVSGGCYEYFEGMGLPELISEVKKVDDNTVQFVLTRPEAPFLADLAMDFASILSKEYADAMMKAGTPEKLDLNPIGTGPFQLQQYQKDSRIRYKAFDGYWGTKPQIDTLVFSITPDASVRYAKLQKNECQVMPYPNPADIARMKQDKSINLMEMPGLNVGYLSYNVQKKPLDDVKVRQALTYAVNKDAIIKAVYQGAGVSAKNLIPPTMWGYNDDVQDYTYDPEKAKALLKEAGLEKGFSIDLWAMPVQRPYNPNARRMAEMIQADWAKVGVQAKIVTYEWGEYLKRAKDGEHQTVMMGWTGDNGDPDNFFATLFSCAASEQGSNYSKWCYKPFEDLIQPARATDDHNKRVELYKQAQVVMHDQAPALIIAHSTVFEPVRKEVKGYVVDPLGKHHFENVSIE
Text: as §1, §2, §3, §4, §5

[3] = molecular target: T3, E. coli dipeptide binding protein variant R141C, fluorophore conjugate (Escherichia coli, UniProt P23847, R169C); assay: Fluorimetric titration of fluorophore conjugates; conditions: peristeric site
T3 construct: initiator methionine (N); Gly-Ser-Gly-(His)n or Gly-Ser-(His)n (n = 5, 6 or 10) (C); made in house; host or cells: E. coli BL21-DE3
T3 sequence (P23847 29-535 R169C): as the sequence (P23847 29-535 S139C) above, with C111S, R141C counted along it
Text: as §1, §2, §3, §4, §5

[4] = molecular target: T4, E. coli dipeptide binding protein variant W315C, fluorophore conjugate (Escherichia coli, UniProt P23847, W343C); assay: Fluorimetric titration of fluorophore conjugates; conditions: peristeric site
T4 construct: initiation methionine (N); Gly-Ser-Gly-(His)n or Gly-Ser-(His)n (C); made in house; host or cells: E. coli BL21-DE3
T4 sequence (P23847 29-535 W343C): as the sequence (P23847 29-535 S139C) above, with C111S, W315C counted along it
Text: as §1, §2, §3, §4, §5

[5] = molecular target: T5, E. coli dipeptide binding protein variant T44C, fluorophore conjugate (Escherichia coli, UniProt P23847, T72C); assay: Fluorimetric titration of fluorophore conjugates; conditions: peristeric site
T5 construct: initiation methionine (N); Gly-Ser-Gly-(His)n or Gly-Ser-(His)n (C); made in house; host or cells: E. coli BL21-DE3
T5 sequence (P23847 29-535 T72C): as the sequence (P23847 29-535 S139C) above, with T44C, C111S counted along it
Text: as §1, §2, §3, §4, §5

[6] = molecular target: T6, E. coli dipeptide binding protein variant K394C, fluorophore conjugate (Escherichia coli, UniProt P23847, K422C); assay: Fluorimetric titration of fluorophore conjugates
T6 construct: initiator methionine (N); Gly-Ser-Gly-(His)n or Gly-Ser-(His)n (n = 5, 6 or 10) (C); made in house; host or cells: E. coli BL21-DE3
T6 sequence (P23847 29-535 K422C): as the sequence (P23847 29-535 S139C) above, with C111S, K394C counted along it
Text: as §1, §2, §3, §4, §5

[7] = molecular target: T7, E. coli dipeptide binding protein (DPP), fluorophore-conjugated cysteine mutants (Escherichia coli, UniProt P23847); assay: Ligand affinity of dipeptide BP fluorescent conjugates (Kd range); conditions: range over conjugates, n=21
T7 construct: several single-Cys mutants (e.g. K394C) with fluorophore
T7 sequence (P23847 29-535, stated change not applied): as the sequence (P23847 29-535 S139C) above, with C111S counted along it
Text: Molecular Cloning. […] Amplified products were cloned into one of the protein expression vectors pAED4 (Doering, “Functional and structural studies of a small f-actin binding domain” in Ph.D. thesis, Massachusetts Institute of Technology, 1992); pKK223-3 (Brosius & Holy, Proc. Natl. Acad. Sci. USA 81:6929-6933, 1984); or pET vectors (Studier et al., Meth. Enzymol. 185:60-89, 1990) (Novagen). N-terminal oligonucleotide primers were designed to clone only the processed periplasmic form, deleting the signal sequence. The C-terminal primer was designed to append the sequence Gly-Ser-Gly-(His)n or Gly-Ser-(His)n, where n=5, 6, or 10. Two tandem stop codons (TAATGA) follow the last His codon. […] Additionally the sequence of Fe(III) BP was mutated by substitution of Glu57 with Asp to raise the Kd to a concentration range conveniently measured using Fe(III) citrate.
Fluorophore conjugation to cysteine-substituted bPBPs. […] The efficiency of reporter group attachment was assessed by determination of unreacted thiol with Ellman's reagent (Ellman, Arch. Biochem. Biophys. 74:443-450, 1958) or by measuring the ratio of fluorophore to protein from absorbance spectra of the purified conjugate.
Fluorimetry. […] Fluorescence emission spectra were acquired with excitation and emission slit widths of 4 and 8 nm, respectively. […]

T1 sequence (P23847 29-535 D478C): as the sequence (P23847 29-535 S139C) above, with C111S, D450C counted along it

With CC(C)C[C@H](NC(=O)CN)C(=O)O [Gly-Leu, Gly-Leu dipeptide] as the compound, how does the Kd ([1]; Acrylodan conjugate) read?
Its Kd is 11000 nM.

What about the Kd ([1]; JPW4039 conjugate) of the same compound?
Its Kd is 910 nM.

What about the Kd ([1]; JPW4042 conjugate) of the same compound?
The Kd was 1500 nM.

What about the Kd ([1]; JPW4045 conjugate) of the same compound?
Its Kd is 2000 nM.

What about the Kd ([2]; Acrylodan conjugate) of the same compound?
Its Kd is 4800 nM.

What about the Kd ([2]; Fluorescein conjugate) of the same compound?
The Kd was 2600 nM.

What about the Kd ([2]; JPW4039 conjugate) of the same compound?
Its Kd is 34000 nM.

And the Kd ([2]; JPW4042 conjugate)?
The Kd was 15800 nM.

What about the Kd ([3]; Acrylodan conjugate) of the same compound?
The Kd was 2300 nM.

And the Kd ([3]; Fluorescein conjugate)?
Its Kd is 38000 nM.

What about the Kd ([4]; Acrylodan conjugate) of the same compound?
Its Kd is 130 nM.

And the Kd ([4]; JPW4039 conjugate)?
The Kd was 1000 nM.

And the Kd ([4]; JPW4045 conjugate)?
Its Kd is 3200 nM.

What about the Kd ([4]; NBD conjugate) of the same compound?
The Kd was 60 nM.

And the Kd ([5]; Fluorescein conjugate)?
The Kd was 640 nM.

And the Kd ([5]; NBD conjugate)?
Its Kd is 6 nM.

What about the Kd ([6]; Kd, Acrylodan conjugate, peristeric site) of the same compound?
Its Kd is 23000 nM.

And the Kd ([6]; Kd, Fluorescein conjugate, peristeric site)?
Its Kd is 93000 nM.

What about the Kd ([6]; Kd, JPW4039 conjugate, peristeric site) of the same compound?
The Kd was 30000 nM.

What about the Kd ([6]; Kd, JPW4042 conjugate, peristeric site) of the same compound?
Its Kd is 78000 nM.

What about the Kd ([6]; Kd, NBD conjugate, peristeric site) of the same compound?
Its Kd is 12 nM.

And the Kd ([6]; affinity for Gly-Leu dipeptide (Kd), K394C-NBD conjugate)?
Its Kd is 6 nM.

And the Kd ([6]; affinity for Gly-Leu dipeptide (Kd), K394C-fluorescein conjugate)?
Its Kd is 93000 nM.

What about the “range of Kd” value [7] of the same compound?
Its value is 6 to 93000 nM.
